Experimental data taken from US20230233569A1 (Revolution Medicines, Inc., priority 2020, published 2023).
Read-outs that look alike come from different tables or passages of the source.

What was measured:
Capan-1 (K-Ras G12V) = experiment: CellTiter-Glo cell viability assay, 5-day treatment; type: cell-based; conditions: Homo sapiens, CAPAN-1, 120 h, 5-day treatment; read-out: Capan-1 Cell Viability assay data (K-Ras G12V, IC50)
In short: (§1)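 Compounds were dispensed directly onto seeded cells and incubated for 5 days, then plates were equilibrated to room temperature for about 30 minutes before luminescence reading. Signals were expressed as percent of the mean DMSO control and fitted with a four-parameter logistic curve.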

NCI-H358 (K-Ras G12C) = experiment: as above; type: cell-based; conditions: Homo sapiens, NCI-H358, 120 h, 5-day treatment; read-out: H358 Cell Viability assay data (K-Ras G12C, IC50)
In short: as §1

KRAS G12C = KRAS G12C (Homo sapiens, UniProt P01116+P62937, G12C); experiment: Disruption of BRAF RBD interaction with Ras (FRET / MOA assay, with Cyclophilin A); type: biochemical
In short: (§2)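 IC50 values reflect loss of K-Ras binding to BRAF RBD, read as a lowered TR-FRET ratio compared with DMSO, driven by compound-mediated K-Ras:Cyclophilin A complex formation. Compound top dose 30 μM final, 3-fold steps, 3 h incubation at 25 °C before a 1.5 h antibody step.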

KRAS G12D = KRAS G12D (Homo sapiens, UniProt P01116+P62937, G12D); experiment: as above; type: biochemical
In short: as §2

KRAS G12S = KRAS G12S (Homo sapiens, UniProt P01116+P62937, G12S); experiment: as above; type: biochemical
In short: as §2

KRAS G12V = KRAS G12V (Homo sapiens, UniProt P01116+P62937, G12V); experiment: as above; type: biochemical
In short: as §2

KRAS G13C = KRAS G13C (Homo sapiens, UniProt P01116+P62937, G13C); experiment: as above; type: biochemical
In short: as §2

KRAS G13D = KRAS G13D (Homo sapiens, UniProt P01116+P62937, G13D); experiment: as above; type: biochemical
In short: as §2

KRAS WT = KRAS WT (Homo sapiens, UniProt P01116+P62937); experiment: as above; type: biochemical
In short: as §2

NRAS G12C = NRAS G12C (Homo sapiens, UniProt P01111+P62937, G12C); experiment: as above; type: biochemical
KRAS Q61H = KRAS Q61H (Homo sapiens, UniProt P01116+P62937, Q61H); experiment: as above; type: biochemical; conditions: KRAS Q61H; read-out: KRAS Q61H FRET data IC50
In short: (§3)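 TR-FRET in 25 mM HEPES pH 7.3, 100 mM NaCl, 5 mM MgCl2, 0.1% BSA: 25 μM Cyclophilin A, 12.5 nM His6-Ras-GMPPNP, 50 nM GST-BRAF RBD with compound (10-point 3-fold series from 30 μM), 3 h at 25° C. Anti-His Eu/anti-GST APC added, 1.5 h more; IC50 from decreased FRET ratio versus DMSO.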

NRAS Q61K = NRAS Q61K (Homo sapiens, UniProt P01111+P62937, Q61K); experiment: as above; type: biochemical; conditions: NRAS Q61K; read-out: NRAS Q61K FRET data IC50
In short: as §3

NRAS Q61R = NRAS Q61R (Homo sapiens, UniProt P01111+P62937, Q61R); experiment: as above; type: biochemical; conditions: NRAS Q61R; read-out: NRAS Q61R FRET data IC50
In short: as §3

NRAS WT = NRAS WT (Homo sapiens, UniProt P01111+P62937); experiment: as above; type: biochemical; conditions: NRAS WT; read-out: NRAS WT FRET data IC50
In short: as §3

[1] = read-out: KRAS G12C FRET data, IC50
[2] = read-out: KRAS G12D FRET data, IC50
[3] = read-out: KRAS G12S FRET data, IC50
[4] = KRAS G12V, read-out: KRAS G12V FRET data IC50
[5] = read-out: KRAS G13C FRET data, IC50
[6] = KRAS G13D, read-out: KRAS G13D FRET data IC50
[7] = KRAS WT, read-out: KRAS WT FRET data IC50
[8] = NRAS G12C, read-out: NRAS G12C FRET data IC50
[9] = KRAS G12V FRET data IC50, KRAS G12V
[10] = KRAS G13D FRET data IC50, KRAS G13D
[11] = KRAS WT FRET data IC50, KRAS WT
[12] = NRAS G12C FRET data IC50, NRAS G12C

Sequence of KRAS G13D (P01116 1-169 isoform P01116-2 G13D limits assumed): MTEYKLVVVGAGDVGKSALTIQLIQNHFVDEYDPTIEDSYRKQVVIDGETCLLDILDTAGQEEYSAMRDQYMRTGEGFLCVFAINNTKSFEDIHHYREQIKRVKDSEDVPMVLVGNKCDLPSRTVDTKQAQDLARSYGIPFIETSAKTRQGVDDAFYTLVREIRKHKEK
Sequence of KRAS G13D (P62937 whole entry): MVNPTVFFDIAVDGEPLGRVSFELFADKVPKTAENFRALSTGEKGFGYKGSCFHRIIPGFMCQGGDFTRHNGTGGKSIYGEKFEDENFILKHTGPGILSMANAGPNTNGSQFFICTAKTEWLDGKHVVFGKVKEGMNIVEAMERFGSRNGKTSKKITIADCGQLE
Sequence of KRAS G13C (P01116 1-169 isoform P01116-2 G13C): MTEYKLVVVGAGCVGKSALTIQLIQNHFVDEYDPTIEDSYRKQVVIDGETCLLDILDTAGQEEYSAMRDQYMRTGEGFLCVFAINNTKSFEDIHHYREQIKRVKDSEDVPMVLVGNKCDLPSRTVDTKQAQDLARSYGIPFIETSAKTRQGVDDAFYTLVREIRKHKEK
Sequence of KRAS G13C (P62937 whole entry): as the sequence (P62937 whole entry) above
Sequence of KRAS G12V (P01116 1-169 isoform P01116-2 G12V limits assumed): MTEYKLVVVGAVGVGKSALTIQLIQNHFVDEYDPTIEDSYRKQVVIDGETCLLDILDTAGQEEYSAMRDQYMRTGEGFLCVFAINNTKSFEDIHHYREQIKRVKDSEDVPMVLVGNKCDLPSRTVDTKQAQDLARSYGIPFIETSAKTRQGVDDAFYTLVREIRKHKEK
Sequence of KRAS G12V (P62937 whole entry): as the sequence (P62937 whole entry) above
Sequence of KRAS G12D (P01116 1-169 isoform P01116-2 G12D limits assumed): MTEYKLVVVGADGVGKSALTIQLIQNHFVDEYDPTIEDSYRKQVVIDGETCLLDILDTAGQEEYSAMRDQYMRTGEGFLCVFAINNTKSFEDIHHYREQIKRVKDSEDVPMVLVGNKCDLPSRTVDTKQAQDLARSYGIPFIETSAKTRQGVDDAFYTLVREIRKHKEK
Sequence of KRAS G12D (P62937 whole entry): as the sequence (P62937 whole entry) above
Sequence of NRAS G12C (P01111 whole entry G12C): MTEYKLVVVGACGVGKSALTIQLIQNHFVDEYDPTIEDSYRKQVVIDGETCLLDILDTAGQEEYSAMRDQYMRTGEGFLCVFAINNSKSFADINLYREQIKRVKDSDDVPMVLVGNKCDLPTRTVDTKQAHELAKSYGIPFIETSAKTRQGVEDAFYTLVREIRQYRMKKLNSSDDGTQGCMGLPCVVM
Sequence of NRAS G12C (P62937 whole entry): as the sequence (P62937 whole entry) above
Sequence of KRAS Q61H (P01116 1-169 isoform P01116-2 Q61H limits assumed): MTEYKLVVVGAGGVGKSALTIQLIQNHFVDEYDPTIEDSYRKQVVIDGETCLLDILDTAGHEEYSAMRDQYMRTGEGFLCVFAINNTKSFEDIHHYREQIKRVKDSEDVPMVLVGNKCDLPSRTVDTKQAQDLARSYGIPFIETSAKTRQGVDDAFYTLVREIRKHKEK
Sequence of KRAS Q61H (P62937 whole entry): as the sequence (P62937 whole entry) above
Sequence of NRAS WT (P01111 whole entry): as the sequence (P01111 whole entry G12C) above, with C12G counted along it
Sequence of NRAS WT (P62937 whole entry): as the sequence (P62937 whole entry) above
Sequence of KRAS G12C (P01116 1-169 isoform P01116-2 G12C): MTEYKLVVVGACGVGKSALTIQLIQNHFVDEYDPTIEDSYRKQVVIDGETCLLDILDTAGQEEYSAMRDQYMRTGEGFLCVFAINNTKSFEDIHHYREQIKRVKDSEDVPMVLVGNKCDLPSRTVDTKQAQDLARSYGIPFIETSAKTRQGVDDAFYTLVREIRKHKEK
Sequence of KRAS G12C (P62937 whole entry): as the sequence (P62937 whole entry) above
Sequence of NRAS Q61R (P01111 whole entry Q61R): as the sequence (P01111 whole entry G12C) above, with C12G, Q61R counted along it
Sequence of NRAS Q61R (P62937 whole entry): as the sequence (P62937 whole entry) above
Sequence of KRAS WT (P01116 1-169 isoform P01116-2 limits assumed): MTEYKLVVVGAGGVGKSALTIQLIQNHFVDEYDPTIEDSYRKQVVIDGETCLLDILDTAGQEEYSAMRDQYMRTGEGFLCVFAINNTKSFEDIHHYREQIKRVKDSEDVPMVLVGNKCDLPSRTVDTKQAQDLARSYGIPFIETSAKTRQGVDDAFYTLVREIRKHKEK
Sequence of KRAS WT (P62937 whole entry): as the sequence (P62937 whole entry) above
Sequence of KRAS G12S (P01116 1-169 isoform P01116-2 G12S limits assumed): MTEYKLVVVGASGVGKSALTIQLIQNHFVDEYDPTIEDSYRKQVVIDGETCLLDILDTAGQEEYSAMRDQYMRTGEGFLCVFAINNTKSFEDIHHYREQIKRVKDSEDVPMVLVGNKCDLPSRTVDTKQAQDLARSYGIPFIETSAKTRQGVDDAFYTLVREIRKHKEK
Sequence of KRAS G12S (P62937 whole entry): as the sequence (P62937 whole entry) above
Sequence of NRAS Q61K (P01111 whole entry Q61K): as the sequence (P01111 whole entry G12C) above, with C12G, Q61K counted along it
Sequence of NRAS Q61K (P62937 whole entry): as the sequence (P62937 whole entry) above

SMILES	IC50 (Capan-1 (K-Ras G12V)) [nM]	IC50 (NCI-H358 (K-Ras G12C)) [nM]	IC50 (KRAS G12C; [1]) [nM]	IC50 (KRAS G12D; [2]) [nM]	IC50 (KRAS G12S; [3]) [nM]	IC50 (KRAS G12V; [4]) [nM]	IC50 (KRAS G13C; [5]) [nM]	IC50 (KRAS G13D; [6]) [nM]	IC50 (KRAS WT; [7]) [nM]	IC50 (NRAS G12C; [8]) [nM]	IC50 (KRAS Q61H) [nM]	IC50 (NRAS Q61K) [nM]	IC50 (NRAS Q61R) [nM]	IC50 (NRAS WT) [nM]	further results
CCn1c(-c2cccnc2[C@H](C)OC)c2c3cc(ccc31)-c1cc(O)cc(c1)C[C@H](NC(=O)[C@H](C(C)C)N(C)C(=O)C1CN(C)C1)C(=O)N1CCC[C@H](N1)C(=O)OCC(C)(C)C2 (atropisomer, axis not shown) [Example A124]	1000 to 10000	100 to 1000	100 to 1000	10 to 100	10 to 100	100 to 1000	10 to 100	10 to 100	10 to 100	100 to 1000	10 to 100	100 to 1000	1000 to 10000	10 to 100	
CCn1c(-c2cccnc2[C@H](C)OC)c2c3cc(ccc31)-c1csc(n1)C[C@H](NC(=O)N1CCC[C@@H]1COC)C(=O)N1CCC[C@H](N1)C(=O)OCC(C)(C)C2 (atropisomer, axis not shown) [Example A266]	100 to 1000	100 to 1000									10 to 100	10 to 100	100 to 1000	100 to 1000	IC50 (KRAS G12C; KRAS G12C FRET data, IC50): 10 to 100 nM; IC50 (KRAS G12D; KRAS G12D FRET data, IC50): 100 to 1000 nM; IC50 (KRAS G12S; KRAS G12S FRET data, IC50): 100 to 1000 nM; IC50 (KRAS G12V; [9]): 10 to 100 nM; IC50 (KRAS G13C; KRAS G13C FRET data, IC50): 10 to 100 nM; IC50 (KRAS G13D; [10]): 100 to 1000 nM; IC50 (KRAS WT; [11]): 100 to 1000 nM; IC50 (NRAS G12C; [12]): 10 to 100 nM
CCn1c(-c2cc(N3CCN(C)CC3)cnc2[C@H](C)OC)c2c3cc(ccc31)-c1csc(n1)C[C@H](NC(=O)[C@H](C(C)C)N(C)C(=O)N(C)C)C(=O)N1CCC[C@H](N1)C(=O)OCC(C)(C)C2 (atropisomer, axis not shown) [Example A277, (2S)—N-((6^3S,4S,Z)-1^1-ethyl-1^2-(2-((S)-1-methoxyethyl)-5-(4-methylpiperazin-1-yl)pyridin-3-yl)-10,10-dimethyl-5,7-dioxo-6^1,6^2,6^3,6^4,6^5,6^6-hexahydro-1^1H-8-oxa-2(4,2)-thiazola-1(5,3)-indola-6(1,3)-pyridazinacycloundecaphane-4-yl)-3-methyl-2-(1,3,3-trimethylureido)butanamide]	< 10	< 10	10 to 100	100 to 1000	10 to 100	10 to 100	10 to 100	10 to 100	10 to 100	10 to 100	10 to 100	10 to 100	10 to 100	10 to 100	
CCn1c(-c2cccnc2[C@H](C)OC)c2c3cc(ccc31)-c1csc(n1)C[C@H](NC(=O)[C@H](C(C)C)N(C)C(=O)N1C[C@@H]3CN(C)C[C@@H]31)C(=O)N1CCC[C@H](N1)C(=O)OCC(C)(C)C2 (atropisomer, axis not shown) [Example A446]	> 10000		1000 to 10000	> 10000	1000 to 10000	> 10000	1000 to 10000	1000 to 10000	1000 to 10000	1000 to 10000	1000 to 10000	1000 to 10000	> 10000	1000 to 10000	
CCn1c(-c2cccnc2[C@H](C)OC)c2c3cc(ccc31)-c1csc(n1)C[C@H](NC(=O)[C@@H]1CCCO1)C(=O)N1CCC[C@H](N1)C(=O)OCC(C)(C)C2 [Example A331]	1000 to 10000		100 to 1000	1000 to 10000	100 to 1000	100 to 1000	100 to 1000	1000 to 10000	100 to 1000	100 to 1000	100 to 1000	100 to 1000	1000 to 10000	100 to 1000	
CCn1c(-c2cccnc2[C@H](C)OC)c2c3cc(ccc31)-c1csc(n1)C[C@H](NC(=O)c1ccccn1)C(=O)N1CCC[C@H](N1)C(=O)OCC(C)(C)C2 [Example A366]	1000 to 10000		100 to 1000	1000 to 10000	1000 to 10000	100 to 1000	100 to 1000	1000 to 10000	1000 to 10000	100 to 1000	100 to 1000	100 to 1000	1000 to 10000	100 to 1000	
CCn1c(-c2cccnc2[C@H](C)OC)c2c3cc(ccc31)-c1csc(n1)C[C@H](NC(=O)[C@H](C(C)C)N(C)C(=O)N1CC[C@]13CCCNC3)C(=O)N1CCC[C@H](N1)C(=O)OCC(C)(C)C2 [Example A434]	1000 to 10000		100 to 1000	100 to 1000	100 to 1000	1000 to 10000	100 to 1000	100 to 1000	100 to 1000	100 to 1000	10 to 100	100 to 1000	100 to 1000	10 to 100	
CCn1c(-c2cccnc2[C@H](C)OC)c2c3cc(ccc31)-c1csc(n1)C[C@H](NC(=O)[C@H](C(C)C)N(C)C(=O)N1CC(N)(C#N)C1)C(=O)N1CCC[C@H](N1)C(=O)OCC(C)(C)C2 [Example A456]	1000 to 10000										100 to 1000	100 to 1000	100 to 1000	100 to 1000	IC50 (KRAS G12C; KRAS G12C FRET data, IC50): 100 to 1000 nM; IC50 (KRAS G12D; KRAS G12D FRET data, IC50): 1000 to 10000 nM; IC50 (KRAS G12S; KRAS G12S FRET data, IC50): 100 to 1000 nM; IC50 (KRAS G12V; [9]): 100 to 1000 nM; IC50 (KRAS G13C; KRAS G13C FRET data, IC50): 100 to 1000 nM; IC50 (KRAS G13D; [10]): 1000 to 10000 nM; IC50 (KRAS WT; [11]): 100 to 1000 nM; IC50 (NRAS G12C; [12]): 100 to 1000 nM
